Patent US9133207B2, “Tetrandrine derivatives with substituted 5-carbon, preparation method and use thereof” (Hangzhou Bensheng Pharmaceutical Co., Ltd., priority 2011, dated 2015)
Values after ≈ are worked out from the molar mass of the structure shown. Values belong to the compound of their own block, whether it stands above or below them.

What was measured:
[1] = test system: RPMI8226 (multiple myeloma); assay: Multiple myeloma cell growth inhibition, MTT, 72 h (Example 6); format: cell-based, human; conditions: Homo sapiens, RPMI-8226; 72 h, MTT, RPMI8226
Method in brief: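 Viability was read by MTT after 72 h of compound exposure at 37 °C, 5% CO2. Each well held 6000 RPMI8226 cells in 1640 medium containing 10% fetal bovine serum, with derivatives added at various concentrations.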

PC-3 (prostate cancer) = assay: Solid tumor cell growth inhibition, MTT, 72 h (Example 7); format: cell-based, human; conditions: Homo sapiens; 72 h, MTT, PC-3
Method in brief: (§1)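 MTT read-out of viable cells after 72 h compound treatment, reported as percent viability versus untreated control (100%). Cells seeded at 4000 per well, grown 24 h beforehand in 10% FBS DMEM high glucose, 37 °C, 5% CO2.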

[2] = test system: PANC-1 (pancreatic cancer); assay: as above; format: cell-based, human; conditions: Homo sapiens; 72 h, MTT, PANC-1
Method in brief: as §1

[3] = test system: Hep-2 (laryngeal carcinoma); assay: as above; format: cell-based, human; conditions: Homo sapiens; 72 h, MTT, Hep 2
Method in brief: as §1

MG63 (osteosarcoma) = assay: as above; format: cell-based, human; conditions: Homo sapiens; 72 h, MTT, MG-63
Method in brief: as §1

[4] = test system: CaES-17 (esophageal cancer cell); assay: as above; format: cell-based, human; conditions: Homo sapiens, CaEs17; 72 h, MTT, CAES-17
Method in brief: as §1

[5] = test system: H9 (acute lymphoblastic leukemia, ALL); assay: Leukemia cell growth inhibition, MTT, 72 h (Example 5); format: cell-based, human; conditions: Homo sapiens; 72 h, MTT
Method in brief: (§2)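 Viability read by MTT after 72 h of compound treatment at 37 °C under 5% CO2; each well seeded with 6000 cells in 1640 medium plus 10% fetal bovine serum, compounds at several concentrations.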

[6] = test system: NB4 (acute promyelocytic leukemia, AML); assay: as above; format: cell-based, human; conditions: Homo sapiens; 72 h, MTT
Method in brief: as §2

[7] = test system: Jurkat (acute lymphoblastic leukemia, ALL); assay: as above; format: cell-based, human; conditions: for IC50 / IC90: Homo sapiens, Jurkat, 72 h, MTT; for anti-Jurkat activity increase over tetrandrine: compared with tetrandrine
Method in brief: as §2

[8] = test system: K562/adr (drug-resistant, chronic myeloid leukemia, CML); assay: as above; format: cell-based, human; conditions: Homo sapiens, K562/Adr; 72 h, MTT
Method in brief: as §2

[9] = test system: Kasumi-1 (acute myeloid leukemia M2 type, AML-M2); assay: as above; format: cell-based, human; conditions: Homo sapiens, Kasumi 1
Method in brief: as §2

[10] = test system: Hela (human cervical cancer cell); assay: Solid tumor cell growth inhibition, MTT, 72 h (Example 7); format: cell-based; conditions: Homo sapiens; 72 h, MTT, Hela
Method in brief: as §1

[11] = test system: CNE (nasopharyngeal carcinoma cell); assay: as above; format: cell-based; conditions: Homo sapiens
Method in brief: as §1

A549 (human lung cancer) = assay: as above; format: cell-based; conditions: Homo sapiens; 72 h, MTT, A549
Method in brief: as §1

[12] = test system: RKO (human colon adenocarcinoma cell); assay: as above; format: cell-based; conditions: Homo sapiens; 72 h, MTT, RKO
Method in brief: as §1

[13] = test system: MGC 803 (human gastric cancer cell); assay: as above; format: cell-based; conditions: Homo sapiens
Method in brief: as §1

[14] = test system: SK-OV-3 (ovarian cancer cell); assay: as above; format: cell-based; conditions: Homo sapiens
Method in brief: as §1

[15] = test system: U87 MG (malignant glioma cell); assay: as above; format: cell-based; conditions: Homo sapiens, U-87 MG
Method in brief: as §1

[16] = test system: Huh7 (human liver cancer cell); assay: as above; format: cell-based; conditions: Homo sapiens; 72 h, MTT, Huh-7
Method in brief: as §1

[17] = test system: Becap37 (human breast cancer cell); assay: as above; format: cell-based; conditions: Homo sapiens; 72 h, MTT, Becap-37
Method in brief: as §1

IC50 [1]: 0.05 µg/mL (≈ 0.0683 µM)
IC90 [1]: 1.51 µg/mL (≈ 2.06 µM)
IC50 (PC-3 (prostate cancer)): 1.87 µg/mL (≈ 2.56 µM)
IC90 (PC-3 (prostate cancer)): 2.83 µg/mL (≈ 3.87 µM)
IC50 [2]: 1.83 µg/mL (≈ 2.5 µM)
IC90 [2]: 6.04 µg/mL (≈ 8.25 µM)
IC50 [3]: 1.51 µg/mL (≈ 2.06 µM)
IC90 [3]: 4.67 µg/mL (≈ 6.38 µM)
IC50 (MG63 (osteosarcoma)): 0.8 µg/mL (≈ 1.09 µM)
IC90 (MG63 (osteosarcoma)): 1.6 µg/mL (≈ 2.19 µM)
IC50 [4]: 1.03 µg/mL (≈ 1.41 µM)
IC90 [4]: 5.13 µg/mL (≈ 7.01 µM)
IC50 [5]: 1.11 µg/mL (≈ 1.52 µM)
IC90 [5]: 1.92 µg/mL (≈ 2.62 µM)
IC50 [6]: 0.3 µg/mL (≈ 0.41 µM)
IC90 [6]: 1 µg/mL (≈ 1.37 µM)
IC50 [7]: 0.59 µg/mL (≈ 0.806 µM)
IC90 [7]: 2.97 µg/mL (≈ 4.06 µM)
IC50 [8]: 0.33 µg/mL (≈ 0.451 µM)
IC90 [8]: 1.6 µg/mL (≈ 2.19 µM)
IC50 [9]: 0.54 µg/mL (≈ 0.738 µM)
IC90 [9]: 2.52 µg/mL (≈ 3.44 µM)
IC50 [10]: 0.95 µg/mL (≈ 1.3 µM)
IC90 [10]: 2.5 µg/mL (≈ 3.42 µM)
IC50 [11]: 1.3 µg/mL (≈ 1.78 µM)
IC90 [11]: 3.3 µg/mL (≈ 4.51 µM)
IC50 (A549 (human lung cancer)): 3 µg/mL (≈ 4.1 µM)
IC90 (A549 (human lung cancer)): 11 µg/mL (≈ 15 µM)
IC50 [12]: 0.45 µg/mL (≈ 0.615 µM)
IC90 [12]: 0.92 µg/mL (≈ 1.26 µM)
IC50 [13]: 0.89 µg/mL (≈ 1.22 µM)
IC90 [13]: 4.11 µg/mL (≈ 5.62 µM)
IC50 [14]: 1.8 µg/mL (≈ 2.46 µM)
IC90 [14]: 12.9 µg/mL (≈ 17.6 µM)
IC50 [15]: 0.3 µg/mL (≈ 0.41 µM)
IC90 [15]: 1.13 µg/mL (≈ 1.54 µM)
IC50 [16]: 1.82 µg/mL (≈ 2.49 µM)
IC90 [16]: 2.43 µg/mL (≈ 3.32 µM)
IC50 [17]: 0.9 µg/mL (≈ 1.23 µM)
IC90 [17]: 3.6 µg/mL (≈ 4.92 µM)
Compound: COc1ccc2cc1Oc1ccc(cc1)C[C@H]1c3cc(c(OC)cc3CCN1C)Oc1c(OC)c(OC)c(CNCc3ccco3)c3c1[C@H](C2)N(C)CC3 [BS-TE-350]
anti-Jurkat activity increase over tetrandrine [7]: ~4 fold

IC50 [1]: 0.12 µg/mL (≈ 0.161 µM)
IC90 [1]: 3.88 µg/mL (≈ 5.21 µM)
IC50 (PC-3 (prostate cancer)): 1.88 µg/mL (≈ 2.52 µM)
IC90 (PC-3 (prostate cancer)): 3.83 µg/mL (≈ 5.14 µM)
IC50 [2]: 2.46 µg/mL (≈ 3.3 µM)
IC90 [2]: 7.1 µg/mL (≈ 9.53 µM)
IC50 [3]: 2.49 µg/mL (≈ 3.34 µM)
IC90 [3]: 5.59 µg/mL (≈ 7.5 µM)
IC50 (MG63 (osteosarcoma)): 2.6 µg/mL (≈ 3.49 µM)
IC90 (MG63 (osteosarcoma)): 5.5 µg/mL (≈ 7.38 µM)
IC50 [4]: 3.6 µg/mL (≈ 4.83 µM)
IC90 [4]: 23 µg/mL (≈ 30.9 µM)
IC50 [5]: 0.95 µg/mL (≈ 1.28 µM)
IC90 [5]: 2.13 µg/mL (≈ 2.86 µM)
IC50 [6]: 1.5 µg/mL (≈ 2.01 µM)
IC90 [6]: 4.5 µg/mL (≈ 6.04 µM)
IC50 [7]: 1.28 µg/mL (≈ 1.72 µM)
IC90 [7]: 9 µg/mL (≈ 12.1 µM)
IC50 [8]: 0.21 µg/mL (≈ 0.282 µM)
IC90 [8]: 2.16 µg/mL (≈ 2.9 µM)
IC50 [9]: 1.23 µg/mL (≈ 1.65 µM)
IC90 [9]: 4.6 µg/mL (≈ 6.18 µM)
IC50 [10]: 1.2 µg/mL (≈ 1.61 µM)
IC90 [10]: 3.89 µg/mL (≈ 5.22 µM)
IC50 [11]: 4.8 µg/mL (≈ 6.44 µM)
IC90 [11]: 10.4 µg/mL (≈ 14 µM)
IC50 (A549 (human lung cancer)): 6.2 µg/mL (≈ 8.32 µM)
IC90 (A549 (human lung cancer)): 16 µg/mL (≈ 21.5 µM)
IC50 [12]: 1.07 µg/mL (≈ 1.44 µM)
IC90 [12]: 2.6 µg/mL (≈ 3.49 µM)
IC50 [13]: 3.04 µg/mL (≈ 4.08 µM)
IC90 [13]: 8 µg/mL (≈ 10.7 µM)
IC50 [14]: 8 µg/mL (≈ 10.7 µM)
IC90 [14]: > 16 µg/mL
IC50 [15]: 0.98 µg/mL (≈ 1.32 µM)
IC90 [15]: 4.02 µg/mL (≈ 5.4 µM)
IC50 [16]: 1.33 µg/mL (≈ 1.79 µM)
IC90 [16]: 3.88 µg/mL (≈ 5.21 µM)
IC50 [17]: 3.2 µg/mL (≈ 4.3 µM)
IC90 [17]: 8 µg/mL (≈ 10.7 µM)
Compound: COc1ccc2cc1Oc1ccc(cc1)C[C@H]1c3cc(c(OC)cc3CCN1C)Oc1c(OC)c(OC)c(CN3CCC(C#N)CC3)c3c1[C@H](C2)N(C)CC3 [BS-TE-323]

IC50 [1]: 0.08 µg/mL (≈ 0.107 µM)
IC90 [1]: 3.69 µg/mL (≈ 4.95 µM)
IC50 (PC-3 (prostate cancer)): 3.7 µg/mL (≈ 4.96 µM)
IC90 (PC-3 (prostate cancer)): 5.9 µg/mL (≈ 7.91 µM)
IC50 [2]: 2.66 µg/mL (≈ 3.57 µM)
IC90 [2]: 9.71 µg/mL (≈ 13 µM)
IC50 [3]: 3.37 µg/mL (≈ 4.52 µM)
IC90 [3]: 7.54 µg/mL (≈ 10.1 µM)
IC50 (MG63 (osteosarcoma)): 1.5 µg/mL (≈ 2.01 µM)
IC90 (MG63 (osteosarcoma)): 2.8 µg/mL (≈ 3.75 µM)
IC50 [4]: 2.69 µg/mL (≈ 3.61 µM)
IC90 [4]: 10.1 µg/mL (≈ 13.5 µM)
IC50 [5]: 1.45 µg/mL (≈ 1.94 µM)
IC90 [5]: 2.4 µg/mL (≈ 3.22 µM)
IC50 [6]: 0.8 µg/mL (≈ 1.07 µM)
IC90 [6]: 2 µg/mL (≈ 2.68 µM)
IC50 [7]: 0.55 µg/mL (≈ 0.737 µM)
IC90 [7]: 4 µg/mL (≈ 5.36 µM)
IC50 [8]: 0.63 µg/mL (≈ 0.845 µM)
IC90 [8]: 3.15 µg/mL (≈ 4.22 µM)
IC50 [9]: 1.1 µg/mL (≈ 1.47 µM)
IC90 [9]: 3.71 µg/mL (≈ 4.97 µM)
IC50 [10]: 2.12 µg/mL (≈ 2.84 µM)
IC90 [10]: 3.97 µg/mL (≈ 5.32 µM)
IC50 [11]: 2.26 µg/mL (≈ 3.03 µM)
IC90 [11]: 4.12 µg/mL (≈ 5.52 µM)
IC50 (A549 (human lung cancer)): 4 µg/mL (≈ 5.36 µM)
IC90 (A549 (human lung cancer)): 16 µg/mL (≈ 21.5 µM)
IC50 [12]: 0.6 µg/mL (≈ 0.804 µM)
IC90 [12]: 1.67 µg/mL (≈ 2.24 µM)
IC50 [13]: 1.39 µg/mL (≈ 1.86 µM)
IC90 [13]: 7.08 µg/mL (≈ 9.49 µM)
IC50 [14]: 4 µg/mL (≈ 5.36 µM)
IC90 [14]: > 16 µg/mL
IC50 [15]: 0.65 µg/mL (≈ 0.871 µM)
IC90 [15]: 1.99 µg/mL (≈ 2.67 µM)
IC50 [16]: 1.35 µg/mL (≈ 1.81 µM)
IC90 [16]: 1.92 µg/mL (≈ 2.57 µM)
IC50 [17]: 1.96 µg/mL (≈ 2.63 µM)
IC90 [17]: 4.5 µg/mL (≈ 6.03 µM)
Compound: COc1ccc2cc1Oc1ccc(cc1)C[C@H]1c3cc(c(OC)cc3CCN1C)Oc1c(OC)c(OC)c(CNCc3ccc(C)o3)c3c1[C@H](C2)N(C)CC3 [BS-TE-358]
anti-Jurkat activity increase over tetrandrine [7]: ~4 fold
